This is an account of results in ChEMBL document CHEMBL3745697, “Identification of azabenzimidazoles as potent JAK1 selective inhibitors” (Bioorg Med Chem Lett, 2016).

Calls of active or inactive are those of the source. The calls are words filed in the database; no cut-off is given here. Where only a bound is given, the exact number is not on record here.

The target in assay [1] is T1, Tyrosine-protein kinase JAK2 (Homo sapiens, UniProt O60674). The experiment in a line: Inhibition of N-terminal GST-fused recombinant JAK2 (831 to 1132 residues) (unknown origin) expressed in insect cells using 5FAM-GEEPLYWSFPAKKK-NH2 as substrate by microfluidic capillary electrophoresis method.
The target of assay [2] is T2, Tyrosine-protein kinase JAK1 (Homo sapiens, UniProt P23458). The experiment in a line: Inhibition of N-terminal GST-fused human recombinant JAK1 (866 to 1154 residues) expressed in insect cells using FITC-C6-KKHTDDGYMPMSPGVA-NH2 as substrate by microfluidic capillary electrophoresis method.
Assay [3] addresses T3, Tyrosine-protein kinase JAK3 (Homo sapiens, UniProt P52333).
T3 sequence (P52333 whole entry): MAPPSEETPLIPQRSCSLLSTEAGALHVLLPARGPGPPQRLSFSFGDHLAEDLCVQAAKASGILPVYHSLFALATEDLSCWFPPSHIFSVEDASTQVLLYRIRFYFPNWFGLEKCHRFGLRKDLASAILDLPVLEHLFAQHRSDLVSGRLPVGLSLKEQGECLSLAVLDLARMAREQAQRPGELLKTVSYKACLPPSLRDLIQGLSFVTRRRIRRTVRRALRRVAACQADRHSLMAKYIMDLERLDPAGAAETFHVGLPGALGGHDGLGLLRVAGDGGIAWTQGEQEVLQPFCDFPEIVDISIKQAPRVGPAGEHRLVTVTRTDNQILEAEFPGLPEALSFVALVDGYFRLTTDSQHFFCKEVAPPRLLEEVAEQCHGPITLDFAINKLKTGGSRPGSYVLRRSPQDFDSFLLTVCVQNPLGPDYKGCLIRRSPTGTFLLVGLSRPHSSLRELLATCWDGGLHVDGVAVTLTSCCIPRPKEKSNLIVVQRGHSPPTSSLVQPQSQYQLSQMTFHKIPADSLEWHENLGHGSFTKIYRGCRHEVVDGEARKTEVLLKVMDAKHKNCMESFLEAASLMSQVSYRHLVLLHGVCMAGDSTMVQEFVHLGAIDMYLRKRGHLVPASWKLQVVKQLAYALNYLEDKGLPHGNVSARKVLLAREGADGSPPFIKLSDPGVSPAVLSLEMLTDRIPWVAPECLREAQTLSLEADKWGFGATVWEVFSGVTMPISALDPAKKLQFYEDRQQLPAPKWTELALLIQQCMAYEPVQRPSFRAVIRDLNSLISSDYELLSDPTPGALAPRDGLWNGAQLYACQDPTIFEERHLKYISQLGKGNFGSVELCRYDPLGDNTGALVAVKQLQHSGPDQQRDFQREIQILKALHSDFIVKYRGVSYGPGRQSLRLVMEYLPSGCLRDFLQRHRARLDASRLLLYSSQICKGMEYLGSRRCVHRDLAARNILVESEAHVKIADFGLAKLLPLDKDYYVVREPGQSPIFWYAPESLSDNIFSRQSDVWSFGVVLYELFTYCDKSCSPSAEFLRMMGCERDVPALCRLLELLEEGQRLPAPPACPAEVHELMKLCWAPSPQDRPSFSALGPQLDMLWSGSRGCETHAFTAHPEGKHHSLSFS
Put plainly: Inhibition of N-terminal GST-fused recombinant JAK3 (781 to 1124 residues) (unknown origin) expressed in insect cells using 5FAM-GEEPLYWSFPAKKK-NH2 as substrate by microfluidic capillary electrophoresis method.

Assay [4] deals with T2, Tyrosine-protein kinase JAK1. Put plainly: Inhibition of JAK1 in human NCI-H1975 cells assessed as reduction in STAT3 phosphorylation after 2 hrs. Format: cell-based.
Assay [5] addresses Aurora kinase B (Homo sapiens, UniProt Q96GD4). The experiment in a line: Inhibition of GST-INCENP activated N-terminal 6His-tagged human recombinant full length Aurora B (1 to 344 residues) expressed in baculovirus expression system using 5FAM-LRRASLG as substrate by microfluidic capillary electrophoresis method.
Assay [6] concerns the target Cyclin-dependent kinase 2/cyclin E1 (Homo sapiens, UniProt P24941). Put plainly: Inhibition of N-terminal 6His-tagged human recombinant full length CDK2 (1 to 304 residues)/Cyclin E1 (1 to 410 residues) expressed in insect cells using FL-Ahx-QSPKKG-CONH2 as substrate by microfluidic capillary electrophoresis method.
A short description of assay [7]: Cell cycle arrest in human SW620 cells assessed as accumulation at Sub G1 phase at 10 uM after 24 hrs by propidium iodide staining-based flow cytometric analysis (reference value: 1.6%). The format is functional. Particulars: SW-620. A general note: A flow cytometer gives signals particle by particle.
Assay [8] is described as follows: Cell cycle arrest in human SW620 cells assessed as accumulation at G1 phase at 10 uM after 24 hrs by propidium iodide staining-based flow cytometric analysis (reference value: 61.4%). The following applies: SW-620. Format: functional.
The nature of assay [9]: Cell cycle arrest in human SW620 cells assessed as accumulation at S phase at 10 uM after 24 hrs by propidium iodide staining-based flow cytometric analysis (reference value: 13.9%). The format is functional. Particulars: SW-620.
A short description of assay [10]: Cell cycle arrest in human SW620 cells assessed as accumulation at G2/M phase at 10 uM after 24 hrs by propidium iodide staining-based flow cytometric analysis (reference value: 17.4%). The format is functional. The following applies: SW-620.
The nature of assay [11]: Cell cycle arrest in human SW620 cells assessed as multi-nuclear cells at 10 uM after 24 hrs by propidium iodide staining-based flow cytometric analysis (reference value: 5%). The format is functional. Particulars: SW-620.
A short description of assay [12]: Cell cycle arrest in human SW620 cells assessed as accumulation at Sub G1 phase at 1 uM after 24 hrs by propidium iodide staining-based flow cytometric analysis (reference value: 1.6%). The format is functional. The following applies: SW-620.
A short description of assay [13]: Cell cycle arrest in human SW620 cells assessed as accumulation at G1 phase at 1 uM after 24 hrs by propidium iodide staining-based flow cytometric analysis (reference value: 61.4%). The format is functional. Particulars: SW-620.
Assay [14] is described as follows: Cell cycle arrest in human SW620 cells assessed as accumulation at S phase at 1 uM after 24 hrs by propidium iodide staining-based flow cytometric analysis (reference value: 13.9%). The format is functional. The following applies: SW-620.
A short description of assay [15]: Cell cycle arrest in human SW620 cells assessed as accumulation at G2/M phase at 1 uM after 24 hrs by propidium iodide staining-based flow cytometric analysis (reference value: 17.4%). The format is functional. Particulars: SW-620.
Assay [16] is described as follows: Cell cycle arrest in human SW620 cells assessed as multi-nuclear cells at 1 uM after 24 hrs by propidium iodide staining-based flow cytometric analysis (reference value: 5%). The format is functional. The following applies: SW-620.
Assay [17] addresses T2, Tyrosine-protein kinase JAK1. Put plainly: Inhibition of JAK1 in human NCI-H1975 cells assessed as reduction in STAT3 phosphorylation at 0.003 to 3 uM after 2 hrs by Western blot analysis. The format is cell-based.
Assay [18] has as its target T1, Tyrosine-protein kinase JAK2. Put plainly: Inhibition of JAK2 in human HEL 92.1.7 cells assessed as reduction in STAT5 phosphorylation after 2 hrs by Western blot analysis. Format: cell-based. On the technique in general: In western blotting, separated proteins are transferred to a membrane and probed.
For assay [19], the system named is Mus musculus. Put plainly: Inhibition of JAK1-mediated STAT3 phosphorylation in human NCI-H1975 cells xenografted in NCr nude mouse at 200 mg/kg, po administered as single dose after 1.5 hrs by Western blot analysis. The format is functional.
Assay [20] deals with Mus musculus. The experiment in a line: Inhibition of JAK1-mediated STAT3 phosphorylation in human NCI-H1975 cells xenografted in NCr nude mouse at 200 mg/kg, po administered as single dose after 8 hrs by Western blot analysis. Format: functional, organism-based.
Assay [21] deals with Non-receptor tyrosine-protein kinase TYK2 (Homo sapiens, UniProt P29597). Put plainly: Inhibition of N-terminal 6His-tagged human recombinant Tyk2.
Chain of Non-receptor tyrosine-protein kinase TYK2 (P29597 whole entry): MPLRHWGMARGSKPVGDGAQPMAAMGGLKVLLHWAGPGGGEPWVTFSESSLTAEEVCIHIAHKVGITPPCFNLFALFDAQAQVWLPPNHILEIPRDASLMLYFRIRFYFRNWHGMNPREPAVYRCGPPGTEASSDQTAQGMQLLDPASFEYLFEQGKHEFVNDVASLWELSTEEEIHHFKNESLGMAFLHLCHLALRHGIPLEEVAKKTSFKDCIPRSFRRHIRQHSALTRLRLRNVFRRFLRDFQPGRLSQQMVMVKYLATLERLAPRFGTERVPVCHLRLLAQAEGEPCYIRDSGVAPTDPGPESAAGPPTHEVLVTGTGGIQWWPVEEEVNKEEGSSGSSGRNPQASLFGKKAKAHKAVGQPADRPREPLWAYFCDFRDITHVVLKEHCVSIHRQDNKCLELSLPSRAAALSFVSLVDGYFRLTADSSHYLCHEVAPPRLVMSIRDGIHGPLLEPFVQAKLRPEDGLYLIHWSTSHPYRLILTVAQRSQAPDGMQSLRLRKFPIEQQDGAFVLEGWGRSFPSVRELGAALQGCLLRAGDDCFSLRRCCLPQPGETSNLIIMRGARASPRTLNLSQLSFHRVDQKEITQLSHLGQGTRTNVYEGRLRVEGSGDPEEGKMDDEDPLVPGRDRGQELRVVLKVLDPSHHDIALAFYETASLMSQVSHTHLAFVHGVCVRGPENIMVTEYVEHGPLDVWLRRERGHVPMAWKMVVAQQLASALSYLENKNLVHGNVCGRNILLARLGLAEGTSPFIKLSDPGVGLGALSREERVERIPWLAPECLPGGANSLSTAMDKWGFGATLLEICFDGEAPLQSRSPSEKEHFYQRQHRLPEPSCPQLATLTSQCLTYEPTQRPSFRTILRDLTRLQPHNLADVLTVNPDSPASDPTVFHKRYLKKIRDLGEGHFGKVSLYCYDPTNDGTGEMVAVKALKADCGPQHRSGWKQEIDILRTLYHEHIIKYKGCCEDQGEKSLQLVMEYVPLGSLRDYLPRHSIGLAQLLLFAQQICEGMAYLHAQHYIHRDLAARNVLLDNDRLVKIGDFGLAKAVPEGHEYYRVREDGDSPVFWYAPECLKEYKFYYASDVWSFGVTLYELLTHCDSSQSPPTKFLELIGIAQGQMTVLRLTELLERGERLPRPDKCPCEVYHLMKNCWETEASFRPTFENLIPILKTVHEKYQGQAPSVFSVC

T2 sequence (P23458 whole entry, the tested form may be a part): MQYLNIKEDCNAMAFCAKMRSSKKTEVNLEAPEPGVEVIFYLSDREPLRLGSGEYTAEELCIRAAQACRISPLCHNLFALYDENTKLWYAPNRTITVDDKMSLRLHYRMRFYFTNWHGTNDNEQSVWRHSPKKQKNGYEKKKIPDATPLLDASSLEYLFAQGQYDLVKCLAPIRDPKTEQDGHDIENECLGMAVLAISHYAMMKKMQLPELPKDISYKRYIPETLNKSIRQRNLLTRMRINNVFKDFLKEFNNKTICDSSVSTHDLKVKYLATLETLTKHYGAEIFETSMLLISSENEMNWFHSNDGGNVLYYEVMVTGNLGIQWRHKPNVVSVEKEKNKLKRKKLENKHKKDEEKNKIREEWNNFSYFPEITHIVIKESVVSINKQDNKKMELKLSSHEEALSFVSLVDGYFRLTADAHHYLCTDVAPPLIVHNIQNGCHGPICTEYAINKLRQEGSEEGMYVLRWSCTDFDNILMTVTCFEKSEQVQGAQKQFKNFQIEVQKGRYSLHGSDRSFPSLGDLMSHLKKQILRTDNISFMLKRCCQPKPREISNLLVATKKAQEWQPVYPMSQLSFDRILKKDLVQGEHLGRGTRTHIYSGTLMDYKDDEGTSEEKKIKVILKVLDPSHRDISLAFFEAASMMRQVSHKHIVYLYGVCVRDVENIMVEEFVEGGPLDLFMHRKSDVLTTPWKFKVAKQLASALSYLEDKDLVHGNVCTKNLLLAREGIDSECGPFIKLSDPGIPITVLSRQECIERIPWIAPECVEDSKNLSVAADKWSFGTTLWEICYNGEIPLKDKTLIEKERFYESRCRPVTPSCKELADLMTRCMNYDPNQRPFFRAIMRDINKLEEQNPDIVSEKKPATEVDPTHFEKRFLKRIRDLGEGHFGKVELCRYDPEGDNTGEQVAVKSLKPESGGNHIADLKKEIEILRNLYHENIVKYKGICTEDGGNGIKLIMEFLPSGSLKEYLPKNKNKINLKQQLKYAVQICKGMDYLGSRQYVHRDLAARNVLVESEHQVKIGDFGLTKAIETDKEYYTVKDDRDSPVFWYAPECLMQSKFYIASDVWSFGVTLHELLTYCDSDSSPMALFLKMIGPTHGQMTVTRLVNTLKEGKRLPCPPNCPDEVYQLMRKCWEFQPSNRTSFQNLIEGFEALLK
T1 sequence (O60674 whole entry, the tested form may be a part): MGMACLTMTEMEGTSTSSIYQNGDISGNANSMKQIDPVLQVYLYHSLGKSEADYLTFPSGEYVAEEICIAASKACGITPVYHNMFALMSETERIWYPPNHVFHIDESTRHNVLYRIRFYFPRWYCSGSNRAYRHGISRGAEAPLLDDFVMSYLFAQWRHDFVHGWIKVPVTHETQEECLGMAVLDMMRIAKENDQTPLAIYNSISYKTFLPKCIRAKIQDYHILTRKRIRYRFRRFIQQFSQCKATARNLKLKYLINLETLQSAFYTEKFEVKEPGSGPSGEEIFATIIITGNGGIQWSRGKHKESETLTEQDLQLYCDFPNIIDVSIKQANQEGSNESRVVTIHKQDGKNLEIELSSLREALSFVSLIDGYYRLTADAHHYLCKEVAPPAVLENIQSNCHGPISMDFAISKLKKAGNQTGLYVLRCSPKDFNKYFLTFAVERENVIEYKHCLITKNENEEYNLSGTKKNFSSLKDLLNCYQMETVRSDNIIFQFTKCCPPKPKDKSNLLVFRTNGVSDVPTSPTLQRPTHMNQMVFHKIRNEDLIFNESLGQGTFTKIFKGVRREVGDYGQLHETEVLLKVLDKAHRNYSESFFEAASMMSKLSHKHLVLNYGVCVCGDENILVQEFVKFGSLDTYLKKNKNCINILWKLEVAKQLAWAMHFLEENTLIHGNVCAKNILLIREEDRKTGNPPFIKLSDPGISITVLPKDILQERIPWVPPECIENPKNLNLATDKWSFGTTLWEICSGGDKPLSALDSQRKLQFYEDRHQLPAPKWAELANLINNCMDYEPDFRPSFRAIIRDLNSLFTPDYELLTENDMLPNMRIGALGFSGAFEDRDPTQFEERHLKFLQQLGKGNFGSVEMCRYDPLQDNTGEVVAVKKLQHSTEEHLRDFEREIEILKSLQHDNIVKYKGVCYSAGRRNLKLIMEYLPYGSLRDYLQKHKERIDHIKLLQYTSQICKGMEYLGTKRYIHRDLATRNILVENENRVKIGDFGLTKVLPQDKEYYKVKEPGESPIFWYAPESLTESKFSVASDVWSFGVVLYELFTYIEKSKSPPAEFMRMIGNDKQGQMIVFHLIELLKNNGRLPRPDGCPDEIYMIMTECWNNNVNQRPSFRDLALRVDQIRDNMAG
Chain of Aurora kinase B (Q96GD4 whole entry, the tested form may be a part): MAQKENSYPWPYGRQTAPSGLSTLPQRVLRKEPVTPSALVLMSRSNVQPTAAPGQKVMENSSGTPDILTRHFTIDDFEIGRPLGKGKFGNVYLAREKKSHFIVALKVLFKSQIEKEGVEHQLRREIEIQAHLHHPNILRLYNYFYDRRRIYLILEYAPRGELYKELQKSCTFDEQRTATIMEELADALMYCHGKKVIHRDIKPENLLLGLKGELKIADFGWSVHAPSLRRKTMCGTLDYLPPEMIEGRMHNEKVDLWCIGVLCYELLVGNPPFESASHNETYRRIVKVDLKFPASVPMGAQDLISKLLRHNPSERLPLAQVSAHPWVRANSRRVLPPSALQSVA

In general, IC50 refers to the concentration at which inhibition is half-maximal. Broadly, the inhibition in vivo is the percentage by which the read-out fell short of the control. High values mean a strong effect, low ones a weak effect. On to `COc1cc(F)c(-c2nc3c(NCC4CCNCC4)c(Cl)cnc3[nH]2)cc1OC`, for which the IC50 in [1] was > 22000 nM; in assay [2] it was 22 nM; in assay [3] it was 8300 nM; in assay [4], 39 nM; in [5], 132 nM; in assay [6], 114 nM. Moreover, the IC50 in assay [21] came out at 28000 nM. Moreover, the Activity in [7] is 10.8%; in assay [8] it was 30.3%; in assay [9], 7%; in assay [10] it was 38.9%; in [11], 13.1%; in assay [12] it was 2.5%. The Activity in [13] was determined as 56.1%; in assay [14] it was 6.5%; in assay [15] it was 27%; in assay [16], 7.9%. For the same molecule, the inhibition result in assay [17] is “Active”. The inhibition result in [18] and in [20] was “inactive” each time. This molecule yielded an inhibition in vivo at 200 mg/kg in assay [19] of 80%.

Take `Cc1cc(Nc2cc(N3CCN(C)CC3)nc(Sc3ccc(NC(=O)C4CC4)cc3)n2)n[nH]1`: the Activity in assay [7] was 18.2%; in [8] it was 4.5%; in assay [9], 1.6%; in assay [10], 60.3%; in assay [11] it was 15.5%; in assay [12], 12.5%. The Activity turned out to be 2.6% in [13], 0.9% in [14], 57.3% in assay [15] and 26.6% in [16].
